For one test, the system named is ALOMY. Put plainly: Post-emergence herbicidal action against ALOMY. The note with it: application rate 80 g/ha, rated visually after about 3 weeks. It counts as in vivo, Alopecurus myosuroides. In short, it runs like this:
(§1)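 Foliar application at 600 l/ha water, 0.5% additive, WP or EC formulation; plants at one-leaf stage in greenhouse sandy loam pots. Scored visually ~3 weeks post-treatment, 0–100% relative to untreated plants.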

A further test deals with AVEFA. The test is described as follows: Post-emergence herbicidal action against AVEFA. As to conditions: application rate 80 g/ha, rated visually after about 3 weeks. It counts as in vivo, Avena fatua. In short, it runs like this:
as §1

The next test has as its system ECHCG. The test is described as follows: Post-emergence herbicidal action against ECHCG. It counts as in vivo, Echinochloa crus-galli. The note with it: application rate 80 g/ha, rated visually after about 3 weeks. The essentials:
as §1

Another test concerns LOLRI. Put plainly: Post-emergence herbicidal action against LOLRI. It counts as in vivo, Lolium rigidum. As to conditions: application rate 80 g/ha, rated visually after about 3 weeks. In short, it runs like this:
as §1

The subject of a further test is SETVI. Put plainly: Post-emergence herbicidal action against SETVI. The test is classed as in vivo, Setaria viridis. As to conditions: application rate 80 g/ha, rated visually after about 3 weeks. In short, it runs like this:
as §1

Another test relates to ABUTH. Put plainly: Post-emergence herbicidal action against ABUTH. The note with it: application rate 80 g/ha, rated visually about 3 weeks after treatment. The test is classed as in vivo, Abutilon theophrasti. In short, it runs like this: as §1
For another test, the system named is AMARE. Put plainly: Post-emergence herbicidal action against AMARE. It counts as in vivo, Amaranthus retroflexus. The note with it: application rate 80 g/ha, rated visually about 3 weeks after treatment. The essentials: as §1
Another test has as its system MATIN. Put plainly: Post-emergence herbicidal action against MATIN. It counts as in vivo, Matricaria inodora. As to conditions: application rate 80 g/ha, rated visually about 3 weeks after treatment. The procedure:
[table] 2. Post-emergence herbicidal action against harmful plants and crop plant compatibility Seeds of monocotyledonous and dicotyledonous weeds and crop plants are placed in sandy loam in plastic or wood-fibre pots, covered with soil and cultivated in a greenhouse under controlled growth conditions. 2 to 3 weeks after sowing, the test plants are treated at the one-leaf stage. The compounds of the invention, formulated in the form of wettable powders (WP) or as emulsion concentrates (EC), are then sprayed onto the green parts of the plants as aqueous suspension or emulsion with addition of 0.5% additive at a water application rate of 600 l/ha (converted). After the test plants have been kept in the greenhouse under optimum growth conditions for about 3 weeks, the activity of the preparations is rated visually in comparison to untreated controls. For example, 100% activity=the plants have died, 0% activity=like control plants.

A further test relates to POLCO. Put plainly: Post-emergence herbicidal action against POLCO. It counts as in vivo, Polygonum convolvulus. The note with it: application rate 80 g/ha, rated visually about 3 weeks after treatment. The essentials: as §1
The next test has as its system STEME. The test is described as follows: Post-emergence herbicidal action against STEME. The test is classed as in vivo, Stellaria media. The note with it: application rate 80 g/ha, rated visually about 3 weeks after treatment. The essentials: as §1
A further test has as its system VIOTR. The test is described as follows: Post-emergence herbicidal action against VIOTR. The test is classed as in vivo, Viola tricolor. The note with it: application rate 80 g/ha, rated visually about 3 weeks after treatment. The essentials: as §1
A further test deals with VERPE. The test is described as follows: Post-emergence herbicidal action against VERPE. The test is classed as in vivo, Veronica persica. As to conditions: application rate 80 g/ha. In short, it runs like this: as §1
The next test has as its system HORMU. Put plainly: Post-emergence herbicidal action against HORMU. As to conditions: application rate 80 g/ha. The test is classed as in vivo, Hordeum murinum. The essentials:
as §1

The values below come from US12319664B2, “Herbicidally active 3-phenylisoxazoline-5-carboxamides of cyclopentenylcarboxylic acid derivatives” (Bayer Aktiengesellschaft, priority 2018, dated 2025).

Take `COC(=O)[C@@H]1C=C[C@H](NC(=O)C2(OC)CC(c3cc(F)cc(F)c3)=NO2)C1` (stereo partly shown) [Example I-019]: the “Herbicidal action against [%] ALOMY” value in the test with ALOMY was 90%. In addition, the “Herbicidal action against [%] AVEFA” value in the test on AVEFA is reported as 100%. Besides, the “Herbicidal action against [%] ECHCG” value in the test with ECHCG is recorded as 80%. The “Herbicidal action against [%] LOLRI” value with LOLRI stood at 90%. Moreover, the “Herbicidal action against [%] SETVI” value in the test with SETVI is 90%. Besides, in the test on ABUTH, the “Herbicidal action against [%] ABUTH” value was 80%. Further, the “Herbicidal action against [%] AMARE” value with AMARE was 90%. The “Herbicidal action against [%] MATIN” value with MATIN is 90%. Further, the “Herbicidal action against [%] POLCO” value in the test on POLCO is 100%. In addition, the “Herbicidal action against [%] STEME” value in the test on STEME was found to be 90%. In addition, the “Herbicidal action against [%] VIOTR” value with VIOTR is 80%. In addition, the “Herbicidal action against [%] VERPE” value in the test with VERPE was found to be 90%. Besides, the “Herbicidal action against [%] HORMU” value with HORMU was found to be 90%.

Regarding `Cc1cc(Cl)cc(C2=NOC(C(=O)N[C@H]3C=C[C@@H](C(=O)OCCCl)C3)(C(F)(F)F)C2)c1` (stereo partly shown) [Example I-028], in the test on ALOMY, the “Herbicidal action against [%] ALOMY” value was 90%. Also, the “Herbicidal action against [%] AVEFA” value in the test with AVEFA is listed as 100%. Also, the “Herbicidal action against [%] ECHCG” value with ECHCG is 80%. In addition, in the test on LOLRI, the “Herbicidal action against [%] LOLRI” value turned out to be 90%. Further, in the test with SETVI, the “Herbicidal action against [%] SETVI” value amounted to 90%. Also, the “Herbicidal action against [%] ABUTH” value in the test on ABUTH came out at 80%. In addition, the “Herbicidal action against [%] AMARE” value in the test on AMARE turned out to be 90%. The “Herbicidal action against [%] MATIN” value in the test with MATIN turned out to be 80%. Also, the “Herbicidal action against [%] POLCO” value with POLCO is 100%. In the test on STEME, the “Herbicidal action against [%] STEME” value was 80%. The “Herbicidal action against [%] VIOTR” value with VIOTR was 80%. For the same compound, the “Herbicidal action against [%] VERPE” value with VERPE was 80%. Also, the “Herbicidal action against [%] HORMU” value in the test with HORMU was 80%.

Turning to `CCOC(=O)C1C=CC(NC(=O)C2(C(F)(F)F)CC(c3cc(F)cc(C#N)c3)=NO2)C1` (mixture of isomers) [Example I-071], the “Herbicidal action against [%] ALOMY” value with ALOMY is given as 90%. The “Herbicidal action against [%] AVEFA” value in the test with AVEFA was determined as 100%. Also, in the test with ECHCG, the “Herbicidal action against [%] ECHCG” value stood at 90%. In the test with LOLRI, the “Herbicidal action against [%] LOLRI” value is given as 90%. Further, the “Herbicidal action against [%] SETVI” value with SETVI was determined as 90%. Also, in the test with ABUTH, the “Herbicidal action against [%] ABUTH” value is 80%. For the same compound, the “Herbicidal action against [%] AMARE” value with AMARE worked out at 80%. For the same compound, the “Herbicidal action against [%] MATIN” value in the test on MATIN was determined as 80%. The “Herbicidal action against [%] POLCO” value in the test with POLCO is recorded as 90%. Also, the “Herbicidal action against [%] STEME” value in the test with STEME was 90%. In addition, in the test on VIOTR, the “Herbicidal action against [%] VIOTR” value was 80%. The “Herbicidal action against [%] VERPE” value in the test on VERPE turned out to be 80%. Also, the “Herbicidal action against [%] HORMU” value with HORMU was found to be 90%.

On to `COC(=O)C1C=CC(NC(=O)C2(C(F)(F)F)CC(c3cc(C)cc(C)c3)=NO2)C1` (mixture of isomers) [Example I-055], for which the “Herbicidal action against [%] ALOMY” value in the test with ALOMY is 90%. Further, the “Herbicidal action against [%] AVEFA” value with AVEFA was determined as 80%. In the test on ECHCG, the “Herbicidal action against [%] ECHCG” value worked out at 90%. In addition, in the test with LOLRI, the “Herbicidal action against [%] LOLRI” value is 90%. Moreover, the “Herbicidal action against [%] SETVI” value in the test with SETVI is on record as 90%. Besides, the “Herbicidal action against [%] ABUTH” value in the test with ABUTH amounted to 80%. Besides, in the test on AMARE, the “Herbicidal action against [%] AMARE” value was found to be 80%. Moreover, the “Herbicidal action against [%] MATIN” value in the test on MATIN was determined as 80%. For the same compound, the “Herbicidal action against [%] POLCO” value in the test with POLCO is listed as 90%. The “Herbicidal action against [%] STEME” value in the test with STEME is recorded as 90%. The “Herbicidal action against [%] VIOTR” value in the test with VIOTR turned out to be 90%. Moreover, the “Herbicidal action against [%] VERPE” value with VERPE turned out to be 80%. Besides, the “Herbicidal action against [%] HORMU” value in the test with HORMU is listed as 90%.

Turning to `COC(=O)[C@@H]1C=C[C@H](NC(=O)C2(C(F)(F)F)CC(c3cc(C)cc(F)c3)=NO2)C1` (stereo partly shown) [Example I-024], the “Herbicidal action against [%] ALOMY” value with ALOMY was 90%. Further, the “Herbicidal action against [%] AVEFA” value in the test on AVEFA stood at 100%. Further, the “Herbicidal action against [%] ECHCG” value in the test with ECHCG amounted to 90%. Further, the “Herbicidal action against [%] LOLRI” value with LOLRI was determined as 90%. The “Herbicidal action against [%] SETVI” value in the test with SETVI is 80%. Moreover, the “Herbicidal action against [%] ABUTH” value in the test with ABUTH was 80%. Further, the “Herbicidal action against [%] AMARE” value with AMARE was 90%. In the test on MATIN, the “Herbicidal action against [%] MATIN” value is 80%. The “Herbicidal action against [%] POLCO” value in the test with POLCO came to 90%. In the test with VIOTR, the “Herbicidal action against [%] VIOTR” value stood at 80%. Besides, the “Herbicidal action against [%] VERPE” value with VERPE turned out to be 80%. For the same compound, in the test on HORMU, the “Herbicidal action against [%] HORMU” value came out at 80%.
